Calls of active or inactive are those of the source. No cut-off for these calls is given here.
Assays:
[1] = molecular target: T1, Tyrosine-protein kinase JAK3 (Homo sapiens, UniProt P52333); test: Inhibition of JAK3 (unknown origin) harboring cysteine at alphaD-1 position by LanthaScreen assay
T1 sequence (P52333 whole entry): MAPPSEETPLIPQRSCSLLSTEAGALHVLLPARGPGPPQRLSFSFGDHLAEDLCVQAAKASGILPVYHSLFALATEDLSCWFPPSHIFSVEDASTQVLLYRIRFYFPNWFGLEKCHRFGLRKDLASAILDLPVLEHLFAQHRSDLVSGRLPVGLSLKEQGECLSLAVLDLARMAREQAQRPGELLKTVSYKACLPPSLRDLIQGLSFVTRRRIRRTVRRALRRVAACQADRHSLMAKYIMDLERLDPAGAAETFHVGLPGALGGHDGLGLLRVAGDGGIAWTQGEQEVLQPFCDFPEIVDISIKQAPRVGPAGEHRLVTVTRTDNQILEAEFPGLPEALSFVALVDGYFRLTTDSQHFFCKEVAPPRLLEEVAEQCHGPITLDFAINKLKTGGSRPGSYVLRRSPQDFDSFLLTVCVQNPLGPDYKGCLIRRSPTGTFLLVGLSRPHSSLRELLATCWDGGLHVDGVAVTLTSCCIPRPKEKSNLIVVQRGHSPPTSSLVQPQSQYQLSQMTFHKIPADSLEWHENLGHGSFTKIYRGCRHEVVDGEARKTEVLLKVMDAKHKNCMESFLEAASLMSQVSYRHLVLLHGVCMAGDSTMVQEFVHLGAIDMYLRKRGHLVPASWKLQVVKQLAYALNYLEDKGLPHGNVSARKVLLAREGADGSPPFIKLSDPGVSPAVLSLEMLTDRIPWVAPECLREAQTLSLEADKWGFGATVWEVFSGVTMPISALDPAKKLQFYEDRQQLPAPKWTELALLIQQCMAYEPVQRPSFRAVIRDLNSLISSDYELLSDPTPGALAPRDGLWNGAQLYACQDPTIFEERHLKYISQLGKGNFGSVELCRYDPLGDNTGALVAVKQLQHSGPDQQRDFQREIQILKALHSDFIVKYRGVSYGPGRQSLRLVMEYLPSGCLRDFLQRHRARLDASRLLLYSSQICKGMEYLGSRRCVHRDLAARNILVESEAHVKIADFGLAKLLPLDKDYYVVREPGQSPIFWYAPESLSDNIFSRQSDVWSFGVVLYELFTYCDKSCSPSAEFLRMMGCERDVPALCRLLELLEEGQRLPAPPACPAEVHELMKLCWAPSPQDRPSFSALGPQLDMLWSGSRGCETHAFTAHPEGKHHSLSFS

[2] = molecular target: T2, Dual specificity mitogen-activated protein kinase kinase 5 (Homo sapiens, UniProt Q13163); test: Inhibition of MEK5 (unknown origin) by LanthaScreen assay
T2 sequence (Q13163 whole entry): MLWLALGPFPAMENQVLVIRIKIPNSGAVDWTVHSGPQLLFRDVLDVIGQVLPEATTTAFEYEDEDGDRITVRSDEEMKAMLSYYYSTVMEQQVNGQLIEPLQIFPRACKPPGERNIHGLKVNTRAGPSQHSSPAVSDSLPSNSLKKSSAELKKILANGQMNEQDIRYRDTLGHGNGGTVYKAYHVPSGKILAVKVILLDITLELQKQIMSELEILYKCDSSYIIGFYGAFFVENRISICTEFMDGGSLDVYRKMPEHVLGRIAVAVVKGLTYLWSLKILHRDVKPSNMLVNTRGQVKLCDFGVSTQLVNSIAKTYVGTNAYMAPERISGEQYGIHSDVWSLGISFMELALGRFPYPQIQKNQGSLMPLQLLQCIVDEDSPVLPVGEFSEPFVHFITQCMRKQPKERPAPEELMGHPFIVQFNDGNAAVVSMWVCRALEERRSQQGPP

[3] = system: Tyrosine-protein kinase BTK (Homo sapiens), Q06187 [C481S]; test: Displacement of K-10 tracer from BTK C481S mutant in HEK293T cells expressing NanoLuc preincubated for 3 hrs followed by tracer addition and measured after 1 hr by NanoBRET analysis; format: cell-based; settings: time 4.0 hrs
[4] = molecular target: T3, Tyrosine-protein kinase BTK (Homo sapiens, UniProt Q06187); test: Binding affinity to BTK (unknown origin) assessed as covalent bond formation by measuring cysteine 481-labeling by mass spectrometry analysis relative to control
[5] = molecular target: T3, Tyrosine-protein kinase BTK; test: Binding affinity to human BTK harboring cysteine at alphaD-1 position at 10 uM by Kinomescan analysis
[6] = system: Epidermal growth factor receptor (Homo sapiens), P00533 [L858R,T790M]; test: Binding affinity to Cys797 residue of trypsin digested EGFR L858R/T790M mutant (unknown origin) by Nano-LC-MS/MS analysis
BaF3 [7] = test: Inhibition of biotinylated osimertinib binding to EGFR L858R mutant in mouse BaF3 cells preincubated for 3 hrs followed by biotinylated osimertinib addition and incubated overnight by competitive pulldown based Western blot analysis; format: cell-based; settings: dose 0.2-10 µM
[8] = molecular target: T4, Dual specificity mitogen-activated protein kinase kinase 7 (Homo sapiens) (UniProt O14733); test: Binding affinity to human MKK7 harboring cysteine at alphaD-1 position at 10 uM by Kinomescan analysis
T4 sequence (whole entry): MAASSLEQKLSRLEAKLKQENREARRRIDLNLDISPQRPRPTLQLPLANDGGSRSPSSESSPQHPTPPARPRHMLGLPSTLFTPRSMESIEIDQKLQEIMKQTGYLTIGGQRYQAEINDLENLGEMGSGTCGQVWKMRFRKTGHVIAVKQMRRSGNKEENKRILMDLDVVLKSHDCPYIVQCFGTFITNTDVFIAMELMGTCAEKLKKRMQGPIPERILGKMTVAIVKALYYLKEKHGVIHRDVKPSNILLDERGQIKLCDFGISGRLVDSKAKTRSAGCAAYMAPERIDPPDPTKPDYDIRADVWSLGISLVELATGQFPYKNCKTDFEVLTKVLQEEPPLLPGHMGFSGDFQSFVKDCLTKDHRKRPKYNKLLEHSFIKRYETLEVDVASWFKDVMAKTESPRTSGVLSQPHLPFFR

[9] = molecular target: RAC-alpha serine/threonine-protein kinase (Mus musculus) (UniProt P31750); test: Inhibition of AKT phosphorylation at S473 residue in mouse Ba/F3 EGFR-L858R cells at 0.2 to 10 uM incubated for 6 hrs by Western blot analysis; format: cell-based; settings: dose 0.2-10 µM
HEK293T = test: Displacement of K-4 tracer from BLK C319S mutant in HEK293T cells expressing NanoLuc preincubated for 3 hrs followed by tracer addition and measured after 1 hr by NanoBRET analysis; format: cell-based; settings: Homo sapiens, time 4.0 hrs
[10] = molecular target: T3, Tyrosine-protein kinase BTK; test: Inhibition of BTK (unknown origin) harboring cysteine at alphaD-1 position by LanthaScreen assay
[11] = molecular target: T3, Tyrosine-protein kinase BTK; test: Inhibition of biotinylated ibrutinib binding to BTK in human MINO cells at 0.2 to 10 uM preincubated for 3.5 hrs followed by biotinylated ibrutinib addition and incubated overnight by competitive pulldown based Western blot analysis; format: cell-based; settings: dose 0.2-10 µM
[12] = molecular target: T3, Tyrosine-protein kinase BTK; test: Displacement of K-10 tracer from wild type BTK in HEK293T cells expressing NanoLuc preincubated for 3 hrs followed by tracer addition and measured after 1 hr by NanoBRET analysis; format: cell-based
[13] = molecular target: Epidermal growth factor receptor (Homo sapiens) (UniProt P00533); test: Binding affinity to N-terminal protease cleavable His-GST tagged wild type human EGFR (696 to 1022 residues) expressed as baculovirus infected Sf9 cells assessed as mass shift at 10 fold molar excess incubated for 2 hrs by LC-MS/MS analysis
[14] = molecular target: Mitogen-activated protein kinase 1 and 3 (ERK2 and ERK1) (Mus musculus) (UniProt P63085+Q63844); test: Inhibition of ERK1/2 phosphorylation at T202/Y204 residues in mouse Ba/F3 EGFR-L858R cells at 0.2 to 10 uM incubated for 6 hrs by Western blot analysis; format: cell-based; settings: dose 0.2-10 µM
[15] = molecular target: Epidermal growth factor receptor (Homo sapiens, UniProt P00533, L858R); test: Inhibition of EGFR L858R mutant (unknown origin) harboring cysteine at alphaD-1 position by LanthaScreen assay
[16] = molecular target: T5, Tyrosine-protein kinase JAK3 (Homo sapiens) (UniProt P52333); test: Binding affinity to JAK3 JH1 domain (unknown origin) assessed as covalent bond formation by measuring cysteine 909-labeling by mass spectrometry analysis relative to control
T5 sequence (whole entry): T1 sequence (P52333 whole entry)

[17] = molecular target: Epidermal growth factor receptor (Mus musculus) (UniProt Q01279); test: Inhibition of EGFR phosphorylation at Y1068 residue in mouse Ba/F3 EGFR-L858R cells at 0.2 to 10 uM incubated for 6 hrs by Western blot analysis; format: cell-based; settings: dose 0.2-10 µM
[18] = molecular target: T5, Tyrosine-protein kinase JAK3 (Homo sapiens); test: Binding affinity to human JAK3 JH1 domain harboring cysteine at alphaD-1 position at 10 uM by Kinomescan analysis
[19] = molecular target: Epidermal growth factor receptor (Homo sapiens) (UniProt P00533); test: Binding affinity to human EGFR harboring cysteine at alphaD-1 position at 10 uM by Kinomescan analysis
BaF3 [20] = test: cells; settings: Mus musculus, BaF3, 72 h
cells = settings: Mus musculus, Ba/F3 EGFR-L858R, 72 h
Description: Antiproliferative activity against mouse Ba/F3 EGFR-L858R cells assessed as inhibition of cell proliferation measured after 3 days by CellTiter-Glo assay

BaF3 [21] = test: Inhibition of biotinylated osimertinib binding to EGFR L858R mutant in mouse BaF3 cells at 0.2 to 10 uM preincubated for 3 hrs followed by biotinylated osimertinib addition and incubated overnight by competitive pulldown based Western blot analysis; format: cell-based; settings: dose 0.2-10 µM
[22] = molecular target: T6, Tyrosine-protein kinase Blk (Homo sapiens, UniProt P51451); test: Displacement of K-4 tracer from wild type BLK in HEK293T cells expressing NanoLuc preincubated for 3 hrs followed by tracer addition and measured after 1 hr by NanoBRET analysis; format: cell-based
[23] = molecular target: T6, Tyrosine-protein kinase Blk; test: Inhibition of BLK (unknown origin) harboring cysteine at alphaD-1 position by LanthaScreen assay

T3 sequence (Q06187 whole entry): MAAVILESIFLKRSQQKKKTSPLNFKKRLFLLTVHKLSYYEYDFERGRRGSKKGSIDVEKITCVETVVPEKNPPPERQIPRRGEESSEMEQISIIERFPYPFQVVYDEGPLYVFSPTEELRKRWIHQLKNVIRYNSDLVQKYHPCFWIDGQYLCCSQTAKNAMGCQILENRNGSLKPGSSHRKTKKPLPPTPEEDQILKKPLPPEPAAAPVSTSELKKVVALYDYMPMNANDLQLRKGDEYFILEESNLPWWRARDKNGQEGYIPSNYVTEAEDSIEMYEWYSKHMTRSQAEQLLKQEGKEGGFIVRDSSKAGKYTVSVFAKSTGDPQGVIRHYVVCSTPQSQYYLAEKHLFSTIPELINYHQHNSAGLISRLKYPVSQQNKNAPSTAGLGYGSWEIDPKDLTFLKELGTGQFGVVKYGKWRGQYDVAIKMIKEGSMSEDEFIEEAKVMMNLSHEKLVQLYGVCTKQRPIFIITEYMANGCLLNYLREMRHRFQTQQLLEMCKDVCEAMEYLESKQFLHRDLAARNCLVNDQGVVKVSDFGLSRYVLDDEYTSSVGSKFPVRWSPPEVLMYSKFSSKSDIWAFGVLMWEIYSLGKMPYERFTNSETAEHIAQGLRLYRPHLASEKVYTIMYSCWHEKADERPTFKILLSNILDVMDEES
Epidermal growth factor receptor (Mus musculus), sequence (Q01279 whole entry, the tested form may be a part): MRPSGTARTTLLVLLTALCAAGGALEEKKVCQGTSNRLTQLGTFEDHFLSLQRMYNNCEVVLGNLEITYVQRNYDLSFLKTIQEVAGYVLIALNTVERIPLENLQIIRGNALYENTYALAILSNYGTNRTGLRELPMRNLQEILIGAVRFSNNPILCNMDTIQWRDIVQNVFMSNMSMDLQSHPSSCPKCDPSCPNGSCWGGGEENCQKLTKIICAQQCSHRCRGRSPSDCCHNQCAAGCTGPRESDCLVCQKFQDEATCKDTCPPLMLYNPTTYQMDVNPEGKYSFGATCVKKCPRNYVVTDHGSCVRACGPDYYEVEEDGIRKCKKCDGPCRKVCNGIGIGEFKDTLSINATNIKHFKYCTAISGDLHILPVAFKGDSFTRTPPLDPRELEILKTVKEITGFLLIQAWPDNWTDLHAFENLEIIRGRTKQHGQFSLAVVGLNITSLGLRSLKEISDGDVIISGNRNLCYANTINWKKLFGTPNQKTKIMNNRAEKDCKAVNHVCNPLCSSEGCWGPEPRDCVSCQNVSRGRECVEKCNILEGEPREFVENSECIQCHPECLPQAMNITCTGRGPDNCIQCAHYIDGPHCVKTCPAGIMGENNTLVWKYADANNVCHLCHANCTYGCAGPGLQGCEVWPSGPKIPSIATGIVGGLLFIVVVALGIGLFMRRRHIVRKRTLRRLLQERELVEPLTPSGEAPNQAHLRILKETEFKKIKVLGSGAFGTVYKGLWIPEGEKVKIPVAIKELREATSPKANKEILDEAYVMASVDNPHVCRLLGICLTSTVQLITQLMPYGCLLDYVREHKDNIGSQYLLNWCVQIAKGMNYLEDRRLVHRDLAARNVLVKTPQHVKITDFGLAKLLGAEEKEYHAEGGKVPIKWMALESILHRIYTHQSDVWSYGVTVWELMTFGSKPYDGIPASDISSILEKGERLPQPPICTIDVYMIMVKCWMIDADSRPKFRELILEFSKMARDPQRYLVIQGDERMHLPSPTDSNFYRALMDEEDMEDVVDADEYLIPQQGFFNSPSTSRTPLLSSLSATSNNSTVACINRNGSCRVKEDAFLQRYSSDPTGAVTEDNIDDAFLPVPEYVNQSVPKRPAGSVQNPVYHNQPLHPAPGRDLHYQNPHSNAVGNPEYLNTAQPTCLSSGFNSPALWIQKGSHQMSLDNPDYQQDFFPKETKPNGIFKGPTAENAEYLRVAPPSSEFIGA
Mitogen-activated protein kinase 1 and 3 (ERK2 and ERK1) (Mus musculus), sequence (P63085 whole entry, looked up): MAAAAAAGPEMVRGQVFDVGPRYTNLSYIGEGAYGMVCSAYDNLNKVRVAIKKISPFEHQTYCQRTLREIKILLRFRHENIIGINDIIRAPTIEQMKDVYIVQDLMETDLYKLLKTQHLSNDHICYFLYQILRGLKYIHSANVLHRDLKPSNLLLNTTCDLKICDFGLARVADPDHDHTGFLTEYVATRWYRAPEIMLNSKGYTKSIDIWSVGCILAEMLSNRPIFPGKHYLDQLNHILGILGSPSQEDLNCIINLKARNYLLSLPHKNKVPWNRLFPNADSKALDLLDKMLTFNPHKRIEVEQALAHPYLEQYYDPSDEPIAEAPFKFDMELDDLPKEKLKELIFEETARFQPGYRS
Mitogen-activated protein kinase 1 and 3 (ERK2 and ERK1) (Mus musculus), sequence (Q63844 whole entry, looked up): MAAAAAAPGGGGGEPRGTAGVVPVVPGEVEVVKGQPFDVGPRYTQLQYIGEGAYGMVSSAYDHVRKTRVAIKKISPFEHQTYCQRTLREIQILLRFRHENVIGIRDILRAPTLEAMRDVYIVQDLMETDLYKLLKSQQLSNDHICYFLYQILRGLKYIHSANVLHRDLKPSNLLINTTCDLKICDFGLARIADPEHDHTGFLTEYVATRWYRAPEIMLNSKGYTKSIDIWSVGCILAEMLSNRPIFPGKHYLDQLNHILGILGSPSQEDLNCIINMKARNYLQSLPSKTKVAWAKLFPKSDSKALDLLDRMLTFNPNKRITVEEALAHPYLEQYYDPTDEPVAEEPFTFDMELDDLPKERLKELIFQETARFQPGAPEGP
T6 sequence (P51451 whole entry): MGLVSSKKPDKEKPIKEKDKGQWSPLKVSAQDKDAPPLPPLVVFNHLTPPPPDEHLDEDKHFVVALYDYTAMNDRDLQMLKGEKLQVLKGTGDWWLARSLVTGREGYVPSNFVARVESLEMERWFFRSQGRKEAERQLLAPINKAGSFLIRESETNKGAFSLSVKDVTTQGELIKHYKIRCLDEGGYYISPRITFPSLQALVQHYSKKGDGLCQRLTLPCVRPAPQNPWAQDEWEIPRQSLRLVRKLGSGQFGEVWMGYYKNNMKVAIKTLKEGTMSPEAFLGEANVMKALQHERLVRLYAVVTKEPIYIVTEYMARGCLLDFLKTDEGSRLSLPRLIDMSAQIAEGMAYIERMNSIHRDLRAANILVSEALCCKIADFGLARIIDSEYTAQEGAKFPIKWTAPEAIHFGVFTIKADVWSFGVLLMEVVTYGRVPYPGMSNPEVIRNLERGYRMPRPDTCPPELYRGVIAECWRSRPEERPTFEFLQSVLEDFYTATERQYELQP
RAC-alpha serine/threonine-protein kinase (Mus musculus), sequence (P31750 whole entry): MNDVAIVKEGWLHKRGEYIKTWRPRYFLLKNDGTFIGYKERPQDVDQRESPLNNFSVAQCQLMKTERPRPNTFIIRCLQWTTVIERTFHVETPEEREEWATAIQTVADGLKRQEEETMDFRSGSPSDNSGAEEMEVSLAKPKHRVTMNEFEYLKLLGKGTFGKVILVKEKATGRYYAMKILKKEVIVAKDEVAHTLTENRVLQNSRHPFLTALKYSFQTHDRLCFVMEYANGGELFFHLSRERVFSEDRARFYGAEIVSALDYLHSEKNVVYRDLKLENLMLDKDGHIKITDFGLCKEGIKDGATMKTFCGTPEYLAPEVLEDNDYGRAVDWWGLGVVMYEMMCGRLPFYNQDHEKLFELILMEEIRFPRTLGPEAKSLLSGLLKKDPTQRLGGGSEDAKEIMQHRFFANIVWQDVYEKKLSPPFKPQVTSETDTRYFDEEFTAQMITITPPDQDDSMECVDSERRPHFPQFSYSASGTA
Tyrosine-protein kinase BTK (Homo sapiens), Q06187 [C481S], sequence (Q06187 whole entry C481S): as the sequence (Q06187 whole entry) above, with C481S counted along it

Row | IC50 [1] [µM] | inhibition [9] | IC50 [10] [µM] | inhibition [11] | IC50 [12] [µM] | inhibition [14] | IC50 [15] [µM] | inhibition [17] | IC50 (BaF3 [20]) [µM] | IC50 (cells) [µM] | Compound | also measured
1 | 0.0592 | Active | 0.105 | Active | 0.865 | Active | 0.242 | Active | – | – | C=CC(=O)N1CC(Oc2nn(C(C)(C)C)c3ncnc(N)c23)C1 | IC50 [2]: > 10 µM; Activity [3]: inactive; Activity [4]: 80%; Activity [5]: Active; Activity [6]: Active; inhibition (BaF3 [7]): Dose-Dependent Effect; Activity [8]: Active; Activity (HEK293T): inactive; Activity [13]: Active; Activity [16]: 60%; Activity [18]: Active; Activity [19]: Active
2 | – | – | – | – | – | – | – | – | 5.99 | 2.41 | C=CC(=O)N1CCC(Oc2nn(C(C)(C)C)c3ncnc(N)c23)C1 (centres undefined) | –
3 | > 10 | inactive | > 10 | inactive | > 30 | inactive | > 10 | inactive | – | – | CCC(=O)N1CC(Oc2nn(C(C)(C)C)c3ncnc(N)c23)C1 | inhibition (BaF3 [21]): inactive; IC50 [22]: > 30 µM; IC50 [23]: > 10 µM
4 | – | – | – | – | – | – | – | – | > 10 | 10.6 | C=CC(=O)N1CCCC(Oc2nn(C(C)(C)C)c3ncnc(N)c23)C1 (centres undefined) | –
5 | – | – | – | – | – | – | – | – | 3.62 | 0.604 | C=CC(=O)N1CCC(Oc2nn(C(C)(C)C)c3ncnc(N)c23)CC1 | –

Row | Compound | IC50 [1] [µM] | inhibition [9] | IC50 [10] [µM] | inhibition [11] | IC50 [12] [µM] | inhibition [14] | IC50 [15] [µM] | inhibition [17] | IC50 (BaF3 [20]) [µM] | IC50 (cells) [µM] | also measured
6 | C=CC(=O)Nc1cc(Nc2nccc(-c3cn(C)c4ccccc34)n2)c(OC)cc1N(C)CCN(C)C [OSIMERTINIB] | – | – | – | – | – | – | – | – | 0.019 | 0.0024 | –
